Laboratory results: patent US4310532A, “Methods and piperidinyl-alkyl-benzamide composition for inhibiting H2 histamine receptors” (The University of Toledo, priority 1980, dated 1982)
≈ marks a conversion by molar mass, not a printed value. Like-named read-outs stand apart in the source and are kept apart here.

Columns and labels:
histamine H2 receptor [1] = target: T1, histamine H2 receptor (Cavia porcellus, UniProt P47747); experiment: histamine H2 antagonism activity on the isolated guinea pig atrium (chronotropic response to histamine); type: cell-based, guinea pig (Hartley strain); conditions: experimental compound 10 μg/ml, histamine 0.05-2.5 μg/ml
T1 construct: histamine chronotropic response
Procedure: The histamine H2 antagonism activity of these piperidinyl-alkyl-benzamide compounds was tested on the isolated guinea pig atrium. The atria from Hartley strain guinea pigs were dissected and suspended in 25 ml of McEwen's solution and attached to a transducer. Spontaneous atrial rate was determined from the recorder tracing. Chronotropic responses to increasing concentrations of histamine (0.05-2.5 μg/ml) were evaluated in the presence of placebo or experimental compound. Results are expressed in Table I as the ratio of concentration of histamine required to increase atrial rate by 50 beats/minute:concentration of histamine required to increase atrial rate by 50 beats/minute in the presence of experimental compound, 10 μg/ml.

histamine H2 receptor [2] = experiment: histamine H2 antagonist activity in vivo: block of histamine-stimulated gastric acid secretion in the lumen-perfused anesthetized rat; design: species or system rat (Sprague Dawley); conditions: urethane-anesthetized rat; antagonist 0.24 mg/kg rapid I.V.; histamine 0.13 μmol/kg/hr; compounds as hydrochloride salts
Procedure: Sprague Dawley rats weighing between 150-200 g were used for the evaluations. Perfusion was carried out with 5% glucose solution at 37° C. Administration of histamine and test compounds was carried out by rapid I.V. injection via cannulated jugular vein. Doses of 0.13 μmol/kg/hr. of histamine were used, and 0.24 mg/kg of antagonist test compound.

isolated rat uterus = experiment: block of the contractile response to histamine of the isolated rat uterus; type: cell-based, rat (Sprague Dawley, female); conditions: read-out: EC50 (concentration of experimental compound required to block the contractile effect of histamine by 50%)
Procedure: Further evaluation involved testing the ability of the piperidinyl-alkyl-benzamides to block the response to histamine by the isolated rat uterus. Female Sprague Dawley rats weighing approximately 150 g were injected with diethylstilbesterol (0.15 mg/rat) fifteen hours prior to sacrifice. […] The results are expressed as the % change in the contractile response to histamine relative to placebo-histamine evaluation in Table III.

histamine H2 receptor [3] = experiment: histamine H2-receptor antagonist activity in standard pharmacological tests (Tables I, II and III); conditions: result in words
Procedure: The histamine H2 antagonism activity of these piperidinyl-alkyl-benzamide compounds was tested on the isolated guinea pig atrium. The atria from Hartley strain guinea pigs were dissected and suspended in 25 ml of McEwen's solution and attached to a transducer. Spontaneous atrial rate was determined from the recorder tracing. Chronotropic responses to increasing concentrations of histamine (0.05-2.5 μg/ml) were evaluated in the presence of placebo or experimental compound. […]
The piperidine-alkyl-benzamides, as their hydrochloride salts, were evaluated for histamine H2 antagonist activity, in vivo, by their ability to block the stimulation of acid secretion by histamine from the lumen-perfused anesthetized (urethane) rat preparation as described in Ash and Shield, Br. J. Pharmacol. Chemotherapy 27, 427 (1966) and Durant, et al., J. Med. Chem. 18, 905 (1975). […]
Further evaluation involved testing the ability of the piperidinyl-alkyl-benzamides to block the response to histamine by the isolated rat uterus. […] Contractile responses were evaluated after the addition of placebo; after the addition of experimental compounds; and after the addition of histamine (25 μg/ml). The results are expressed as the % change in the contractile response to histamine relative to placebo-histamine evaluation in Table III. […]
The product was evaluated according to Tables I, II, and III above.

[4] = isolated rat uterus, histamine 25 μg/ml, diethylstilbesterol-primed

T1 sequence (P47747 whole entry): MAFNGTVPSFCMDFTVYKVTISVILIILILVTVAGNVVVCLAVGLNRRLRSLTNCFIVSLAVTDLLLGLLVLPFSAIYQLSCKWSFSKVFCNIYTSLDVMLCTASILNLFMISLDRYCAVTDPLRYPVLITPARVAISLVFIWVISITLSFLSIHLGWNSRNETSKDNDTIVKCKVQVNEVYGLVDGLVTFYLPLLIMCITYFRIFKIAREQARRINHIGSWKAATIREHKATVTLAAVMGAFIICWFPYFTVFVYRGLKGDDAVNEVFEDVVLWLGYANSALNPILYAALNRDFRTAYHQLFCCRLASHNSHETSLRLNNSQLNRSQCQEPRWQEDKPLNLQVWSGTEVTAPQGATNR

SMILES | HISTAMINE RATIO (concentration of histamine required to increase atrial rate by 50 beats/minute : same in the presence of experimental compound) (histamine H2 receptor [1]) | MEAN % INHIBITION OF GASTRIC ACID SECRETION (histamine H2 receptor [2]) | EC50 (isolated rat uterus; Rattus norvegicus) | EC50 (isolated rat uterus; [4]) | histamine H2-receptor antagonist activity (histamine H2 receptor [3])
CN/C(=N/CCSCc1nc[nH]c1C)NC#N [Cimetidine, reference compound] | 0.0025 | 78 ± 8% | 0.3 µg/mL (≈ 1.19 µM) | – | –
O=C(NCC1CCNCC1)c1ccccc1 [Example 1, N-(4-Piperidinylmethyl)benzamide] | 0.005 | 40 ± 6% | – | 0.38 µg/mL (≈ 1.74 µM) | significant amount of histamine H2 --receptor antagonist activity
Cc1ccc(C(=O)NCC2CCNCC2)cc1 [Example 2, N-(4-piperidinylmethyl)-p-methylbenzamide] | 0.004 | 52 ± 5% | – | 0.31 µg/mL (≈ 1.33 µM) | –
